Patent US6380359B1, “Liposomes comprising peptide antigens derived from X protein of hepatitis B virus” (Mogam Biotechnology Research Institute, priority 1998, dated 2002)
No end group written: not given here.

What was measured:
[1] = system: T2 cells; experiment: Cytotoxicity of peptide-stimulated blood cells (CTL) against T2 cells sensitized by synthesized peptides, Cr51 release; format: cell-based, human; conditions: for Specific cytotoxicity by CTL (%): T2 cells sensitized with 100 μg/ml peptide
Experimental: That is, blood positive to anti-HBV antibody(value obtained by ELISA: 1.0 or more) is collected from common blood donors, and centrifuged to harvest blood cells. The said peptides added in a concentration of 10 μg/ml to leukocytes remained after removing red blood cells from the blood cells, and incubated at 37° C. in a CO2 incubator maintained to contain 5% CO2. At 2 days after culture, 10 unit of interleukin-2 was added to the culture medium and the cells were further cultivated for 3 days. Then, blood cells having the same MHC were inactivated by mitomycin C and added to the culture medium as stimulating cells. And the peptides and interleukin-2 were added to the medium and the cells were further cultivated for 7 days. Then, it was determined whether the blood cells recognize and destruct T2 cells having a certain peptide at their surface, and the results were shown in Table 3 below and FIG. 2, respectively.
Destruction of T2 cell by cultured blood cell was determined as followings: 100 μg/ml of a peptide was added to T2 cells and reacted at 37° C. for 3 hours. Then, the cells were washed sufficiently to remove unreacted peptides, added with radioactive sodium chromate(Cr^51), and reacted at 37° C. for 2 hours in a CO2 incubator. And then, they were washed with RPMI medium sufficiently to remove unreacted sodium chromate, mixed with blood cells washed with PBS in a certain ratio, and reacted at 37° C. for 4 hours in a CO2 incubator. The resultant medium was collected and measured for intensity of gamma ray to determine cytotoxicity of the blood cells against T2 cell, i.e., target cell.

[2] = target: T1, HLA-A2.1, a human MHC Class I molecule (Homo sapiens, UniProt P04439, D140Y/D185E/D98H/E176V/E277Q/G131W/G231S/I119V/I121R/I166T/I218V/L300P/L318F/N151K/N90K/P208A/P217A/Q86G/Q94H/R138H/R169H/T345S); experiment: Binding of synthetic peptides to MHC Class I molecules at the surface of T2 cell (BB7.2 antibody, fluorocytometry); format: cell-based; conditions: peptide 1-100 μg/ml, 37° C., 4 hours; FIG. 1
T1 construct: endogenous in cells; host or cells: T2 cell line
Experimental: Seven different peptides including the peptides as disclosed in Table 1 above which were derived from HBV X protein were synthesized chemically and dissolved in phosphate buffered saline(hereinafter, referred to as “PBS”). In order to investigate whether the peptides can bind to MHC Class I molecules associated with induction of CTL, each peptide was added to T2 cell line in a concentration of 100, 64, 32, 16, 8, 4, 2 and 1 μg/ml, respectively, and reacted at 37° C. for 4 hours. And then, the cells were washed with PBS to remove unreacted peptides, added with BB7.2 antibody against HLA-A2.1, a human MHC Class I molecule, and reacted at 4° C. for 1 hour. The cells were washed with PBS again, added with fluorescein isothiocyanate(FITC)-conjugated anti-mouse immunoglobulin antibody, and reacted at 4° C. for 1 hour. Then, fluorescence of the cells was determined using fluorocytometer(FACScan, BECTON DICKINSON) and the results were shown in FIG. 1.
However, when T2 cells are cultivated in a medium containing peptides which can bind to MHC molecules, the peptides bind to MHC molecules at the surface of T2 cell to increase stability of MHC molecules, which results in increase in expression of MHC molecule. Based on the knowledge, binding of a specific peptide to MHC molecule at the surface of T2 cell can be analyzed by determining degree of binding of BB7.2 antibody to the cell surface.

[3] = system: RMA cell or EL4 cell; experiment: Cytotoxicity of T lymphocytes from C57BL/6 mice immunized with pH-sensitive liposomes comprising HCV peptide, Cr51 release; format: in vivo, C57BL/6 mouse; conditions: mice immunized with pH-sensitive liposomes (POPE/CHOH 7:3) comprising the peptide
Experimental: (§1) In order to investigate whether pH-sensitive liposome as a carrier of peptides can induce CTL response specific to the virus from which the peptides are derived, pH-sensitive liposomes encapsulating synthetic peptides were prepared and cytotoxicity study were carried out in a serial manner. Since the cellular immunity of the pepitides which can bind HLA-A2, a human MHC class I molecule should be investigated employing human body, indirect experiment employing the peptides derived HIV and HCV proteins which can bind mouse MHC Class I molecule(see: Table 4 below), was carried out. In this regard, the pH-sensitive liposome comprising the peptides were obtained employing the phospholipid composition consisting of POPE/CHOH(7:3 in a molar ratio). Then, mice were immunized with the liposomes, T lymphocytes were isolated from the mice, and cytotoxicity of the T lymphocytes after recognition of target cells labelled with Cr^51 was determined.
In case of HIV, Balb/C mouse was immunized with pH-sensitive liposomes comprising R15K or T26K, and at 4 weeks after booster immunization, its spleen was dissected and homogenized in 2 ml of RPMI cell culture medium using a homogenizer. 2 ml of the homogenate thus obtained was added to 2 ml of ficoll and centrifuged at 1,500 rpm for 30 minutes. T lymphocytes located between ficoll and the cell culture medium were separated, added to 15 ml of RPMI-10 cell culture medium, centrifuged at 1,000 rpm, and washed three times with the RPMI-10 medium. The T lymphocytes were diluted to a cell concentration of 5×10^6/ ml into a 24 well-plate, and the immunized peptide antigen was added to a final concentration of 2 μM. Then, the cells were cultured at 37° C. for 3 days in a CO2 incubator containing 5% CO2 and used as effector cells. […]
100 μM of the immunized peptide was added to the respective target cells, reacted at 37° C. for 16 hours, and washed twice with RPMI cell culture medium. […] The resultant medium was collected and measured for the intensity of gamma ray to determine cytotoxicity of effector cells against target cells(see: Table 5).

[4] = system: p815 cell; experiment: Cytotoxicity of T lymphocytes from Balb/C mice immunized with pH-sensitive liposomes comprising HIV peptides, Cr51 release; format: in vivo, Balb/C mouse; conditions: mice immunized with pH-sensitive liposomes (POPE/CHOH 7:3) comprising the peptide
Experimental: as §1
In case of HIV, Balb/C mouse was immunized with pH-sensitive liposomes comprising R15K or T26K, and at 4 weeks after booster immunization, its spleen was dissected and homogenized in 2 ml of RPMI cell culture medium using a homogenizer. 2 ml of the homogenate thus obtained was added to 2 ml of ficoll and centrifuged at 1,500 rpm for 30 minutes. T lymphocytes located between ficoll and the cell culture medium were separated, added to 15 ml of RPMI-10 cell culture medium, centrifuged at 1,000 rpm, and washed three times with the RPMI-10 medium. The T lymphocytes were diluted to a cell concentration of 5×10^6/ ml into a 24 well-plate, and the immunized peptide antigen was added to a final concentration of 2 μM. Then, the cells were cultured at 37° C. for 3 days in a CO2 incubator containing 5% CO2 and used as effector cells. In case of HCV, 5 week-old C57BL/6 mouse was immunized with liposomes comprising DBL peptide antigen, and T lymphocytes were isolated in the same manner as above and used as effector cells. On the other hand, p815 cell(ATCC TIB64) having MHC Class I same as that of Balb/C mouse was used as a target cell in case of HIV, and RMA cell(see: Hosken, N. A. and Bevan, M. J., J. Exp. Med., 175:719(1992)) or EL4 cell(ATCC TIB39) having MHC Class I same as that of C57BL/6 mouse was used as a target cell in case of HCV.
100 μM of the immunized peptide was added to the respective target cells, reacted at 37° C. for 16 hours, and washed twice with RPMI cell culture medium. Then, radioactive sodium chromate(Cr^51) was added to the cells and reacted at 37° C. for 2 hours in a CO2 incubator. After reaction, the cells were washed sufficiently with RPMI cell culture medium to remove unreacted sodium chromate, mixed with effector cells washed with phosphate buffer solution in various mixing ratios shown in table 5 below, and reacted at 37° C. for 4 hours in a CO2 incubator. The resultant medium was collected and measured for the intensity of gamma ray to determine cytotoxicity of effector cells against target cells(see: Table 5).

[5] = Ratio of CTL against target cell 5:1
[6] = Ratio of CTL against target cell 10:1
[7] = Ratio of CTL against target cell 25:1

| Compound | Specific cytotoxicity by CTL (%) [1, 5] | Specific cytotoxicity by CTL (%) [1, 6] | Specific cytotoxicity by CTL (%) [1, 7] | also measured |
| --- | --- | --- | --- | --- |
| TLPSPSSSA [×2, TLPSPSSSA] | 5% | 10% | 11% |  |
| EIRLKVFVL [×7, EIRLKVFVL] | 12% | 19% | 24% |  |
| CLFKDWEEL (Hepatitis B virus) [×6, peptide derived from HBV X protein, position 115-123] | 11% | 16% | 23% | Binding to MHC Class I molecules at the surface of T2 cell [2]: successfully bind; Recognition of peptide by cultured blood cells (CTL) ([1]; blood cells from anti-HBV antibody positive donors): recognized by cultured blood cells |
| VLCLRPVGA [×1, VLCLRPVGA] | 6% | 11% | 15% |  |
| CC(C)C[C@H](NC(=O)CNC(=O)[C@H](CC(C)C)NC(=O)[C@@H](NC(=O)[C@H](CCCNC(=N)N)NC(=O)[C@H](CCCCN)NC(=O)[C@H](Cc1c[nH]cn1)NC(=O)[C@H](CC(C)C)NC(=O)[C@@H](N)C(C)C)[C@@H](C)O)C(=O)O [×4, VLHKRTLGL] | 8% | 16% | 21% |  |
| DLMGYIPL [D8L, DLMGYIPL] |  |  |  | Specific cytotoxicity by CTL (%) ([3]; target cell:effector cell 1:10): 5.5%; Specific cytotoxicity by CTL (%) ([3]; target cell:effector cell 1:20): 18%; Specific cytotoxicity by CTL (%) ([3]; target cell:effector cell 1:30): 30% |
| AMSTTDLEA [×5, AMSTTDLEA] | 16% | 24% | 31% |  |
| HLSLRGLFV [×3, HLSLRGLFV] | 10% | 17% | 20% |  |
| CC[C@H](C)[C@H](NC(=O)[C@H](CCCNC(=N)N)NC(=O)[C@@H](NC(=O)[C@H](CCCNC(=N)N)NC(=O)[C@H](CCCCN)NC(=O)[C@H](CCCNC(=N)N)NC(=O)[C@@H](NC(=O)[C@H](CC(N)=O)NC(=O)[C@H](CC(N)=O)NC(=O)[C@H](CC(N)=O)NC(=O)[C@@H]1CCCN1C(=O)[C@H](CCCNC(=N)N)NC(=O)[C@@H](N)[C@@H](C)O)[C@@H](C)O)[C@@H](C)CC)C(=O)N[C@@H](CCC(N)=O)C(=O)N[C@@H](CCCNC(=N)N)C(=O)NCC(=O)N1CCC[C@H]1C(=O)NCC(=O)N[C@@H](CCCNC(=N)N)C(=O)N[C@@H](C)C(=O)N[C@@H](Cc1ccccc1)C(=O)N[C@H](C(=O)N[C@H](C(=O)N[C@H](C(=O)NCC(=O)N[C@@H](CCCCN)C(=O)O)[C@@H](C)CC)[C@@H](C)O)C(C)C [T26K] |  |  |  | Specific cytotoxicity by CTL (%) ([4]; target cell:effector cell 1:10): 55%; Specific cytotoxicity by CTL (%) ([4]; target cell:effector cell 1:20): 80%; Specific cytotoxicity by CTL (%) ([4]; target cell:effector cell 1:30): 87% |
| CC[C@H](C)[C@H](NC(=O)[C@@H](NC(=O)[C@@H](NC(=O)[C@H](Cc1ccccc1)NC(=O)[C@H](C)NC(=O)[C@H](CCCNC(=N)N)NC(=O)CNC(=O)[C@@H]1CCCN1C(=O)CNC(=O)[C@H](CCCNC(=N)N)NC(=O)[C@H](CCC(N)=O)NC(=O)[C@@H](NC(=O)[C@@H](N)CCCNC(=N)N)[C@@H](C)CC)C(C)C)[C@@H](C)O)C(=O)NCC(=O)N[C@@H](CCCCN)C(=O)O [R15K, RIQRGPGRAFVTIGK] |  |  |  | Specific cytotoxicity by CTL (%) ([4]; target cell:effector cell 1:10): 7.5%; Specific cytotoxicity by CTL (%) ([4]; target cell:effector cell 1:20): 15%; Specific cytotoxicity by CTL (%) ([4]; target cell:effector cell 1:30): 25% |
